The structures appear in SMILES notation.

In the experiment the target is T1, rat EP1 receptor (Rattus norvegicus, UniProt P70597).
T1 construct: expressed in transfected cells
T1 sequence (P70597 1-405): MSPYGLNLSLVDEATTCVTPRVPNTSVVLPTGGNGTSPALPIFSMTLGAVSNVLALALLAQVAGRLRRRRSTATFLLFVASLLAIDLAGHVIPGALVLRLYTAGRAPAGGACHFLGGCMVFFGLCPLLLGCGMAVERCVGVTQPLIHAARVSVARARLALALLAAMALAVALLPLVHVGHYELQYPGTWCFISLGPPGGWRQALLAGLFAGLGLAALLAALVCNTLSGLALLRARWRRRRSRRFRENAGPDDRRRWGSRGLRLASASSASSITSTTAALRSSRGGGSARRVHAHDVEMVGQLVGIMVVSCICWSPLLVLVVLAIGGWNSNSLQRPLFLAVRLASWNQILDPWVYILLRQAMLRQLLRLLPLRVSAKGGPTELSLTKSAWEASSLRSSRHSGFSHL
The experiment is described as follows: Test for confirmation of EP1 receptor antagonism (inhibition of PGE2-induced increase in intracellular calcium concentration). In kind it is cell-based. The settings on record: rat EP1 receptor-expressing COS-1 cells; prostaglandin E2 10 nM; fluorescent calcium indicator, FDSS 7000. The procedure: Test for Confirmation of EP1 Receptor Antagonism
(1) Preparation of Rat EP1 Expression Vector
Using Rat Kidney BD Marathon-Ready cDNA (Nippon Becton Dickinson Company, Ltd.) as a template, a forward primer shown in (SEQ ID NO:1), and a reverse primer shown in (SEQ ID NO:2), a first run of PCR was carried out using KOD-Plus-Ver 2.0 (Toyobo Co., Ltd.). Further, using this amplification product as a template, a forward primer shown in (SEQ ID NO:3), and a reverse primer shown in (SEQ ID NO:4), a second run of PCR was carried out in the same manner. The amplification product obtained by the second run of PCR was incorporated into a vector (pcDNA3.1 D/V5-His-TOPO (registered trademark), Invitrogen Japan K. K.). By a conventional method, the vector containing this amplification product was introduced to E. coli (One Shot TOP 10 Competent Cells, Invitrogen Corporation) to transform. This transformed E. coli was cultured in an LB agar medium for one day. After the culture, colonies were selected and cultured in an LB liquid medium containing 50 μg/mL of ampicillin. After the culture, the vector was purified using a QIAprep Spin Miniprep Kit (Qiagen K. K.). The base sequence of the insertion site of this vector (SEQ ID NO:5) was compared with the rat EP1 base sequence (Ptger1) registered as Accession No. NM_013100 in publicly-known database (NCBI), and as a result, they all matched except for a single base. Further, the amino acid sequence translated by the base sequence completely matched the amino acid sequence of the rat EP1 receptor registered as an NCBI Accession No. NP_037232. Therefore, it was confirmed that the cloned gene sequence was a base sequence of the rat EP1 receptor and the obtained amino acid sequence was that of the rat EP1 receptor. The pcDNA3.1 D/V5-His-TOPO (registered trademark) to which the nucleic acid shown in (SEQ ID NO:5) had been inserted was taken as a rat EP1-expressing vector.
(2) Preparation of Rat EP1 Receptor-Expressing Cells
COS-1 cells (Dainippon Sumitomo Pharma Co., Ltd.) were cultured until they reached confluence in an incubator at 37° C. under a 5% CO2 gas condition, using a D-MEM liquid medium (high glucose and L-glutamine contained, Invitrogen Corporation) to which a penicillin-streptomycin solution (Invitrogen Corporation, final concentration: 100 U/mL as benzylpenicillin; 100 μg/mL as streptomycin) as an antibiotic, MEM nonessential amino acids (Invitrogen Corporation, final concentration: 0.1 mM), and fetal calf serum (Sanko Junyaku Co., Ltd., final concentration: 10%) were added.
The cells that had reached confluence were stripped with 0.05% trypsin/0.53 mM EDTA.4Na, and resuspended in a D-MEM liquid medium (high glucose and L-glutamine contained, Invitrogen Corporation) to which an MEM nonessential amino acid (final concentration: 0.1 mM) and fetal calf serum (final concentration: 10%) were added. In each well of a Poly D-lysine-coated 96-well microplate (BD BioCoat (registered trademark), Nippon Becton Dickinson Company, Ltd.), this resuspended cell suspension culture was prepared to be 5×10^4 cells/well in 100 μL of the liquid medium, and 100 μL of the cell suspension was seeded on each well. After seeding, the cells were cultured in an incubator at 37° C. under a 5% CO2 gas condition. At a point when the cells for introduction of a rat EP1-expressing vector were adhered (about 2 hours after seeding), introduction of the rat EP1-expressing vector was carried out in the following order.
For introduction of the rat EP1-expressing vector, Lipofectamine 2000 (Invitrogen Japan K. K.) was used. The rat EP1-expressing vector was diluted with OPTI-MEM (registered trademark) I Reduced-Serum Medium (Invitrogen Japan K. K.) to 200 ng/25 μL/well, and at the same time, Lipofectamine 2000 (Invitrogen Japan K. K.) was also diluted with OPTI-MEM (registered trademark) I Reduced-Serum Medium (Invitrogen Japan K. K.) to 0.5 μL/25 μL/well, followed by incubation at room temperature for 5 minutes. […]
For orientation: A change in cytosolic calcium serves as a functional read-out for many receptors and channels.
For the compound `COc1ccc2c(Cc3cccc(C(=O)NS(C)(=O)=O)n3)c(-c3ccsc3)[nH]c2c1` [Example 1, N-Methanesulfonyl-6-(6-methoxy-2-thiophen-3-yl-1H-indol-3-ylmethyl)pyridine-2-carboxamide], the concentration for half-maximal inhibition (IC50) (as a rule, the concentration that gives 50% inhibition) came to 99 nM.
For the compound `COc1ccc2c(Cc3cccc(C(=O)NS(=O)(=O)c4ccccc4)n3)c(-c3ccccc3)[nH]c2c1` [Example 3-3], the IC50 is 30 nM.
In the case of `CCCS(=O)(=O)NC(=O)c1cccc(Cc2c(-c3ccccc3)[nH]c3cc(OC)ccc23)n1` [Example 3-4] it was 39 nM; in that of `CCCS(=O)(=O)NC(=O)c1cccc(Cc2c(C(C)(C)C)[nH]c3cc(OC)c(Cl)cc23)n1` [Example 3-5], 55 nM.
Regarding `CCS(=O)(=O)NC(=O)c1cccc(Cc2c(C(C)(C)C)[nH]c3cc(OC)c(Cl)cc23)n1` [Example 3-7], the IC50 was 33 nM.
`COc1ccc2c(Cc3cccc(C(=O)NS(=O)(=O)C4CC4)n3)c(-c3ccccc3)[nH]c2c1` [Example 3-10]: the IC50 was 47 nM.
For the compound `COc1ccc2c(Cc3cccc(C(=O)NS(=O)(=O)c4ccccc4)n3)c(C(C)(C)C)[nH]c2c1` [Example 3-11], the IC50 stood at 17 nM.
Consider `Cc1ccc2c(Cc3cccc(C(=O)NS(C)(=O)=O)n3)c(-c3ccsc3)[nH]c2c1` [Example 3-12], for which the IC50 was 27 nM.
Consider `COc1ccc2c(Cc3cccc(C(=O)NS(=O)(=O)C(C)C)n3)c(-c3ccccc3)[nH]c2c1` [Example 3-13], for which the concentration for half-maximal inhibition (IC50) came out at 27 nM.
Take `COc1ccc2c(Cc3cccc(C(=O)NS(C)(=O)=O)n3)c(-c3ccc(F)cc3)[nH]c2c1` [Example 3-14]: the 50% inhibitory concentration (IC50) stood at 88 nM.
As to `CCS(=O)(=O)NC(=O)c1cccc(Cc2c(-c3ccc(F)cc3)[nH]c3cc(OC)ccc23)n1` [Example 3-15], the 50% inhibitory concentration (IC50) is 27 nM.
With `COc1ccc2c(Cc3cccc(C(=O)NS(C)(=O)=O)n3)c(-c3csc(C)c3)[nH]c2c1` [Example 3-20], the half-inhibitory concentration (IC50) amounted to 68 nM.
The result for `CCS(=O)(=O)NC(=O)c1cccc(Cc2c(-c3csc(C)c3)[nH]c3cc(OC)ccc23)n1` [Example 3-21] reads 86 nM.
In the case of `CCS(=O)(=O)NC(=O)c1cccc(Cc2c(-c3ccoc3)[nH]c3cc(OC)ccc23)n1` [Example 3-23] it was 58 nM; in that of `CCS(=O)(=O)NC(=O)c1cccc(Cc2c(-c3ccccc3)[nH]c3cc(Cl)ccc23)n1` [Example 3-24], 58 nM; in that of `CS(=O)(=O)NC(=O)c1cccc(Cc2c(-c3ccccc3)[nH]c3cc(Cl)ccc23)n1` [Example 3-25], 78 nM.
The result for `Cc1cc2[nH]c(-c3ccccc3)c(Cc3cccc(C(=O)NS(C)(=O)=O)n3)c2cc1C` [Example 3-30] reads 43 nM; that for `CCS(=O)(=O)NC(=O)c1cccc(Cc2c(-c3ccccc3)[nH]c3cc(C)c(C)cc23)n1` [Example 3-31], 47 nM.
Turning to `CCS(=O)(=O)NC(=O)c1cccc(Cc2c(-c3ccccc3)[nH]c3cc(OC)c(F)cc23)n1` [Example 3-32], the IC50 came out at 51 nM.
Regarding `CCS(=O)(=O)NC(=O)c1cccc(Cc2c(-c3ccccc3)[nH]c3cc(C4CC4)ccc23)n1` [Example 3-33], the IC50 came out at 66 nM.
As for `CCS(=O)(=O)NC(=O)c1cccc(Cc2c(-c3ccccc3)[nH]c3cc(C)ccc23)n1` [Example 3-34], the half-inhibitory concentration (IC50) is 40 nM.
Turning to `COc1ccc2c(Cc3cccc(-c4nnn[nH]4)n3)c(-c3ccsc3)[nH]c2c1` [Example 5-4], the half-maximal inhibitory concentration (IC50) was found to be 12 nM.
On to `COc1ccc2c(Cc3cccc(-c4nnn[nH]4)c3)c(-c3ccccc3)[nH]c2c1` [Example 5-6], for which the half-maximal inhibitory concentration (IC50) stood at 45 nM.
Regarding `COc1cc2[nH]c(-c3ccccc3)c(Cc3cccc(-c4nnn[nH]4)n3)c2cc1F` [Example 5-8], the 50% inhibitory concentration (IC50) was found to be 12 nM.
For `COc1ccc2c(Cc3cccc(-c4nnn[nH]4)n3)c(-c3ccc(F)cc3)[nH]c2c1` [Example 5-9], the IC50 came to 22 nM.
Take `COc1ccc2c(Cc3cccc(-c4nnn[nH]4)n3)c(-c3cccnc3)[nH]c2c1` [Example 5-10]: the IC50 amounted to 13 nM.
Consider `COc1ccc2c(Cc3cccc(-c4nnn[nH]4)n3)c(-c3csc(C)c3)[nH]c2c1` [Example 5-12], for which the IC50 was 26 nM.
Regarding `Cc1ccc2c(Cc3cccc(-c4nnn[nH]4)n3)c(-c3ccsc3)[nH]c2c1` [Example 5-13], the IC50 amounted to 30 nM.
In the case of `COc1ccc2c(Cc3cccc(-c4noc(=S)[nH]4)n3)c(-c3ccccc3)[nH]c2c1` [Example 9, 3-[6-(6-Methoxy-2-phenyl-1H-indol-3-ylmethyl)pyridin-2-yl]-4,5-dihydro-1,2,4-oxadiazole-5-thione] it was 50 nM; in that of `COc1ccc2c(Cc3cccc(-c4noc(=O)[nH]4)n3)c(-c3ccoc3)[nH]c2c1` [Example 12-1], 23 nM; in that of `COc1ccc2c(Cc3cccc(-c4noc(=O)[nH]4)n3)c(C(C)(C)C)[nH]c2c1` [Example 12-2], 43 nM.
In the case of `COc1cc2[nH]c(-c3ccccc3)c(Cc3cccc(-c4noc(=O)[nH]4)n3)c2cc1F` [Example 12-5] it was 46 nM.
`O=c1[nH]c(-c2cccc(Cc3c(-c4ccccc4)[nH]c4cc(C5CC5)ccc34)n2)no1` [Example 12-6]: the IC50 turned out to be 40 nM.
For `Cc1cc2[nH]c(-c3ccccc3)c(Cc3cccc(-c4noc(=O)[nH]4)n3)c2cc1C` [Example 12-7], the IC50 is 28 nM.
Take `Cc1ccc2c(Cc3cccc(-c4noc(=O)[nH]4)n3)c(-c3ccsc3)[nH]c2c1` [Example 12-9]: the IC50 is 34 nM.
For the compound `Cc1ccc2c(Cc3cccc(C(=O)NC#N)n3)c(-c3ccccc3)[nH]c2c1` [Example 16-1], the IC50 turned out to be 54 nM.
Take `COc1ccc2c(Cc3cccc(C(=O)NC#N)n3)c(C(C)(C)C)[nH]c2c1` [Example 16-2]: the IC50 turned out to be 48 nM.
On to `COc1cc2[nH]c(-c3ccccc3)c(Cc3cccc(C(=O)NC#N)n3)c2cc1F` [Example 16-3], for which the IC50 amounted to 24 nM.
As to `COc1cc2[nH]c(C(C)(C)C)c(Cc3cccc(C(=O)NC#N)n3)c2cc1Cl` [Example 16-5], the IC50 was 46 nM.
The result for `Cc1ccc2c(Cc3cccc(C(=O)NC#N)n3)c(-c3ccsc3)[nH]c2c1` [Example 16-6] reads 36 nM; that for `Cc1cc2[nH]c(-c3ccccc3)c(Cc3cccc(-c4nnn[nH]4)n3)c2cc1C` [Example 17-3], 20 nM.
Regarding `COc1cc2[nH]c(C(C)C)c(Cc3cccc(-c4nnn[nH]4)n3)c2cc1Cl` [Example 17-4], the half-maximal inhibitory concentration (IC50) stood at 27 nM.
Consider `COc1ccc2c(Cc3cccc(-c4nnn[nH]4)n3)c(C(C)C)[nH]c2c1` [Example 17-5], for which the IC50 turned out to be 23 nM.
The result for `COc1ccc2c(Cc3cccc(-c4nnn[nH]4)n3)c(C3CC3)[nH]c2c1` [Example 17-6] reads 31 nM; that for `COc1ccc2c(Cc3cccc(-c4nnn[nH]4)n3)c(C3CCCCC3)[nH]c2c1` [Example 17-7], 30 nM.

The values are drawn from US8815903B2, “Indole derivative and pharmacologically acceptable salt thereof” (Kissei Pharmaceutical Co., Ltd., priority 2011, dated 2014).
